Results published in patent US8673965B2, “Composition for the treatment of arthritis containing a dibenzo-p-dioxin derivative as the active ingredient” (Livechem, Inc., priority 2008, dated 2014).
One block for each compound: values may come before it.

How the values were obtained:
NF-kB = test: NFkB-luciferase reporter in IL-1α-stimulated rabbit articular cartilage tissue; format: cell-based; details: 10 μg/mL, 5 ng/mL rhIL-1α
Description: (§1) A five-week-old rabbit was killed, from the hock joint of which the articular cartilage was then taken. The articular surface (200˜220 mg/joint) was placed in a complete medium (DMEM, supplemented with heat inactivated 5% FBS; penicillin 100 U/mL; streptomycin 100 μg/mL) under sterile conditions. It was washed three or four times and then incubated at 37° C. for about 1˜2 days under sterile conditions and under 5% CO2/95% air conditions, after which AP-1-luciferase or NFkB-luciferase reporter plasmid DNA (each 0.5 μg: Stratagene) was transfected into the incubated tissue using a Lipofectamin transfection reagent (Invitrogen, Carlsbad, Calif., U.S.A.). After 24 hours, the complete medium was exchanged with a basic medium (DMEM, supplemented with heat inactivated 1% FBS, 10 mM HEPES, penicillin 100 U/mL, streptomycin 100 μg/mL). […] After 1 hour, the culture medium of each group was treated with 5 ng/mL rhIL-1α (R&D systems, Minneapolis, USA). Then, the culture medium was incubated at […] under 5% CO2/95% air conditions for 60 hours, and then treated with a lysis buffer (0.1M potassium phosphate buffer, pH 7.8/1% Triton X-100/1 mM DTT/2 mM EDTA), and the luciferase activity in the culture medium was measured using a luminometer (Monolight 2010).

AP-1 = test: AP-1-luciferase reporter in IL-1α-stimulated rabbit articular cartilage tissue; format: cell-based; details: 10 μg/mL, 5 ng/mL rhIL-1α; for inhibition at 10 µg/mL: Oryctolagus cuniculus, AP1, luciferase activity
Description: as §1

arthritis induced rabbit = test: External-use compositions in collagenase arthritis induced rabbit; format: in vivo; details: for Heating score / Limping score / Reddening score / Swelling score: score 0-3; for Max. Effect during Treatment: (total score 7th day − 14th day)/7th day; for Total Treatment Effect: (total score 7th day − 21st day)/7th day; for Healing Effect upon Discontinuation of Treatment: (total score 14th day − 21st day)/14th day
Description: The composition of a carrier used to absorb the active ingredient into the skin was made referring to Bookman et al (Can. Med. Assoc. J. 171(4) 333-338 (2004)).
In order to induce arthritis in the rabbit, six test groups were set up, and five rabbits were randomly assigned into each group. A collagenase solution (4 mg/mL, saline) was filtered with a 0.22 μm membrane. 2.5˜3.0 kg weighed rabbits assigned into six test groups were anesthetized with tiletamine-zolazepam (Zoletil 50, Virbac, France). The region around the right knee joint of each rabbit was shaved and disinfected, after which the articular cavity thereof was injected with 0.25 mL of saline in one test group and 0.25 mL of the collagenase solution in the other five test groups (Choi, et al. Osteoarthritis and Cartilage 10, 471-478 (2002)). […] This model has been adopted because it is similar to the degeneration of the cartilage tissue in the human degenerative arthritis.
From the 7th day, 0.3 mL of each of the external-use compositions of Table 3 was sufficiently applied two times per day for 7 days to the affected part of the five test groups treated with the collagenase solution, and no treatment was performed for the following 7 days in order to evaluate the fundamental healing effects. The swelling, reddening, heat and limping of the articular part were quantitatively evaluated on the day (0th day) immediately before collagenase treatment, the 7th day, the 14th day and the 21st day, using the evaluation criteria comprising 0 (normal), 1 (low), 2 (middle), 3 (high). In order to objectively evaluate the effects of respective treatment solutions, the total score at each evaluation was compared, and “maximum effect during treatment”, “total treatment effect”, “healing effect upon discontinuation of treatment” were calculated by the following equations.
(1) Maximum effect during treatment=(total score on 7th day−total score on 14th day)/total score on 7th day,
(2) Total treatment effect=(total score on 7th day−total score on 21st day)/total score on 7th day,
(3) Healing effect upon discontinuation of treatment=(total score on 14th day−total score on 21st day)/total score on 14th day.

[1] = 7th Day (before treatment), 1.5% active, 0.3 mL twice daily topical
[2] = 14th Day (end of 7-day treatment)
[3] = 21st Day (7 days after discontinuation)

SMILES: CC(C)Cc1ccc(C(C)C(=O)O)cc1 (stereo not shown) [Ibuprofen, ibuprofen]
- NF-kB Activity Inhibition (%) (NF-kB): 23%
- inhibition at 10 µg/mL (AP-1): 27%

SMILES: CC(=O)Oc1ccccc1C(=O)O [Aspirin, aspirin]
- NF-kB Activity Inhibition (%) (NF-kB): 48%
- inhibition at 10 µg/mL (AP-1): 46%
- Heating score (arthritis induced rabbit; 7th Day (before treatment)): 3.0 ± 0.00
- Limping score (arthritis induced rabbit; 7th Day (before treatment)): 2.8 ± 0.45
- Reddening score (arthritis induced rabbit; 7th Day (before treatment)): 2.8 ± 0.45
- Swelling score (arthritis induced rabbit; [1]): 3.0 ± 0.00
- Total Score (arthritis induced rabbit; 14th Day): 6.0 ± 0.71
- Swelling score (arthritis induced rabbit; [2]): 1.6 ± 0.55
- Heating score (arthritis induced rabbit; 14th Day): 1.4 ± 0.55
- Limping score (arthritis induced rabbit; 14th Day): 1.4 ± 0.55
- Reddening score (arthritis induced rabbit; 14th Day): 1.6 ± 0.55
- Total Score (arthritis induced rabbit; 21st Day): 5.0 ± 1.0
- Swelling score (arthritis induced rabbit; [3]): 1.2 ± 0.45
- Heating score (arthritis induced rabbit; 21st Day): 1.2 ± 0.45
- Limping score (arthritis induced rabbit; 21st Day): 1.2 ± 0.45
- Reddening score (arthritis induced rabbit; 21st Day): 1.4 ± 0.55
- Max. Effect during Treatment (arthritis induced rabbit): 48.3%
- Total Treatment Effect (arthritis induced rabbit): 56.9%
- Healing Effect upon Discontinuation of Treatment (arthritis induced rabbit): 16.7%

SMILES: Cc1ccc(-c2cc(C(F)(F)F)nn2-c2ccc(S(N)(=O)=O)cc2)cc1 [Celecoxib, celecoxib]
- NF-kB Activity Inhibition (%) (NF-kB): 10%
- inhibition at 10 µg/mL (AP-1): 23%

- NF-kB Activity Inhibition (%) (NF-kB): 32%
- AP-1 Activity Inhibition (%) (AP-1): 34%
SMILES: O=C(O)Cc1ccccc1Nc1c(Cl)cccc1Cl [Dichlofenac, dichlofenac]

SMILES: COc1ccc2c(c1)c(CC(=O)O)c(C)n2C(=O)c1ccc(Cl)cc1 [Indomethacin, indomethacin]
- inhibition at 10 µg/mL (AP-1): 34%

SMILES: O=C([O-])Cc1ccccc1Nc1c(Cl)cccc1Cl.[Na+] [Dichlofenac Sodium]
- Total Score (arthritis induced rabbit; 7th Day (before treatment)): 11.4 ± 1.34
- Heating score (arthritis induced rabbit; 7th Day (before treatment)): 2.8 ± 0.45
- Limping score (arthritis induced rabbit; 7th Day (before treatment)): 3.0 ± 0.00
- Reddening score (arthritis induced rabbit; 7th Day (before treatment)): 2.8 ± 0.45
- Swelling score (arthritis induced rabbit; [1]): 2.8 ± 0.45
- Total Score (arthritis induced rabbit; 14th Day): 5.8 ± 1.3
- Swelling score (arthritis induced rabbit; [2]): 1.4 ± 0.55
- Heating score (arthritis induced rabbit; 14th Day): 1.4 ± 0.55
- Limping score (arthritis induced rabbit; 14th Day): 1.6 ± 0.55
- Reddening score (arthritis induced rabbit; 14th Day): 1.4 ± 0.55
- Total Score (arthritis induced rabbit; 21st Day): 5.4 ± 0.55
- Swelling score (arthritis induced rabbit; [3]): 1.4 ± 0.55
- Heating score (arthritis induced rabbit; 21st Day): 1.2 ± 0.45
- Limping score (arthritis induced rabbit; 21st Day): 1.4 ± 0.55
- Reddening score (arthritis induced rabbit; 21st Day): 1.4 ± 0.55
- Max. Effect during Treatment (arthritis induced rabbit): 49.1%
- Total Treatment Effect (arthritis induced rabbit): 52.6%
- Healing Effect upon Discontinuation of Treatment (arthritis induced rabbit): 6.9%

SMILES: CC(C(=O)O)c1cccc(C(=O)c2ccccc2)c1 (stereo not shown) [Ketoprofen, ketoprofen]
- NF-kB Activity Inhibition (%) (NF-kB): 12%
- inhibition at 10 µg/mL (AP-1): 22%
